Test results: patent US12679836B2, “4H-pyrrolo[3,2-c]pyridin-4-one compounds” (Bayer Aktiengesellschaft, priority 2019, dated 2026)
Where two headings read alike, the source gives them in different places.

What was measured:
[1] = target: T1, EGFR with insertion of SVD between D770 and N771 (EGFR ins SVD) (Homo sapiens, UniProt P00533, DUP768-770); assay: Exon20-Mutant-EGFR(D770_N771insSVD) kinase assay (TR-FRET); format: biochemical; conditions: 2 mM ATP, several values per example where printed
T1 construct: made in house; host or cells: Sf9 insect cells (baculovirus)
T1 sequence (P00533 with tags, fused parts or gaps DUP768-770): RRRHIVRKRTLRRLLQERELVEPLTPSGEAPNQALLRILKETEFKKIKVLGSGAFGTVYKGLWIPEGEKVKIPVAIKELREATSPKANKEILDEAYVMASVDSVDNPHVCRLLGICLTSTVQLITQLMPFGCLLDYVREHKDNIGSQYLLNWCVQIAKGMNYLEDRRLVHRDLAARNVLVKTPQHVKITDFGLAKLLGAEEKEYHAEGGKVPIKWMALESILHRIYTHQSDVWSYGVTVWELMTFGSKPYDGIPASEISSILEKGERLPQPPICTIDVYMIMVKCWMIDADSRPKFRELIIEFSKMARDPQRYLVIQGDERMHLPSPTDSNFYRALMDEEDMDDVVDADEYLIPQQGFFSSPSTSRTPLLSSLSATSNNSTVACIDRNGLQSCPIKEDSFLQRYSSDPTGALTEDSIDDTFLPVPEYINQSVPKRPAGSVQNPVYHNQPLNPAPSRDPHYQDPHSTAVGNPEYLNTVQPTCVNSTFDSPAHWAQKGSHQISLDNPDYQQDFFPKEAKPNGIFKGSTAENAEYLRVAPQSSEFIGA

[2] = target: T2, Bub1 (Homo sapiens, UniProt O43683); assay: Bub1 TR-FRET high ATP kinase assay; format: biochemical; conditions: 2 mM ATP
T2 construct: catalytic domain of human Bub1 (amino acids 704-1085); His6 (N); made in house; host or cells: Hi5 insect cells
T2 sequence (O43683 704-1085): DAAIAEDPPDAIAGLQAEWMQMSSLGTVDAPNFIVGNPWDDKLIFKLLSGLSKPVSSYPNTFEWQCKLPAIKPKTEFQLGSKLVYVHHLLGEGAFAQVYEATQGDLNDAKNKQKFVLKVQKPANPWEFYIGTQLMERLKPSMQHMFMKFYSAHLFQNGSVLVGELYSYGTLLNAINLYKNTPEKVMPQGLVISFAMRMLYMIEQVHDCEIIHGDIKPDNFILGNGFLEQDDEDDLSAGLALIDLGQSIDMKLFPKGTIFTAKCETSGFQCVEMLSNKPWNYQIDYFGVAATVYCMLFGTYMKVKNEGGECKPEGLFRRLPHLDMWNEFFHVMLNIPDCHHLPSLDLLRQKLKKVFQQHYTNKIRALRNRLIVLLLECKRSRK
Source text: Bub1 High ATP Kinase Assay
Bub1-inhibitory activity of compounds of the present invention at a high ATP concentration was quantified employing the Bub1 TR-FRET high ATP kinase assay as described in the following paragraphs.
N-terminally His6-tagged recombinant catalytic domain of human Bub1 (amino acids 704-1085), expressed in insect cells (Hi5) and purified by Ni-NTA affinity chromatography and subsequent size exclusion chromatography, was used as enzyme. As substrate for the kinase reaction the biotinylated peptide biotin-Ahx-[…]—SEQ ID 7 (C-terminus in amid form) was used which can be purchased e.g. form the company Biosyntan (Berlin, Germany).

[3] = target: Ba/F3-EGFR-insSVD cells (Homo sapiens, UniProt P00533, DUP768-770, cells depend on it); assay: Ba/F3 cell survival assay (Cell Titer-Glo), EGFR-insSVD; format: cell-based; conditions: without IL-3, with 10 ng/mL EGF, 48 h; read-out: BA/F3 (insSVD) IC50
Sequence of Ba/F3-EGFR-insSVD cells (P00533 with tags, fused parts or gaps DUP768-770): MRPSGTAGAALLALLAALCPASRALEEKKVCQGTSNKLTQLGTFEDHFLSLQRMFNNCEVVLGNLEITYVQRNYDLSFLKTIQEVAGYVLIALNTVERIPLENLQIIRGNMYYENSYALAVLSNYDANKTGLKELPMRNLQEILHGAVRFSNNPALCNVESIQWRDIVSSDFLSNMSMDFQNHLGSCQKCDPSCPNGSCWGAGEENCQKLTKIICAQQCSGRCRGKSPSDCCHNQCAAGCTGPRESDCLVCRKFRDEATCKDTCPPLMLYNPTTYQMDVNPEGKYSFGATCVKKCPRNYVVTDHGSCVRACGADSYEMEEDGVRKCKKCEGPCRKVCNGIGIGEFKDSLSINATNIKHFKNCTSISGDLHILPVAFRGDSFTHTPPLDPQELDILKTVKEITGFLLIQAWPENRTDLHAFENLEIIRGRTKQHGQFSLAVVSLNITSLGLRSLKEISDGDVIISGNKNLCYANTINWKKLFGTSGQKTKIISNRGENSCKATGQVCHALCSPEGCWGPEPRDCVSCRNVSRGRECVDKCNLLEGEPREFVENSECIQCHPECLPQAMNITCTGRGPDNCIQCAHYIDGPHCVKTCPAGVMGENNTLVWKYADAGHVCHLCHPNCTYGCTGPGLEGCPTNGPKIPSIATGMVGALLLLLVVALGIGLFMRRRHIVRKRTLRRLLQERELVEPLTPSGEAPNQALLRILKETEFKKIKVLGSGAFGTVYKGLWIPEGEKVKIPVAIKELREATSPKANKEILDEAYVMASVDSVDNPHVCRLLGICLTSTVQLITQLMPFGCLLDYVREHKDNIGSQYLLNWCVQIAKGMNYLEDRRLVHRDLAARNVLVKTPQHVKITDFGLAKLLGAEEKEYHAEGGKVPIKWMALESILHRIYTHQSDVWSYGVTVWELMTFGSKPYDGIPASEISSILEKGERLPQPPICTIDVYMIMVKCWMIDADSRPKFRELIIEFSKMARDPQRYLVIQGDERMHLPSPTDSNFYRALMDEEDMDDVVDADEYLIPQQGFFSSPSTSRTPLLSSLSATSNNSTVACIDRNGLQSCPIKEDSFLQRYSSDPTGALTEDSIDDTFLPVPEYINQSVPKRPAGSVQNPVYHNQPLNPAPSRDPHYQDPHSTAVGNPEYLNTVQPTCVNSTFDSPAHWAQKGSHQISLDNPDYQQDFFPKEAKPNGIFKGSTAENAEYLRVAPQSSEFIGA
Description: (§1) 293T cells from ATCC were transfected with pBABEpuro expression constructs for WT EGFR or EGFR-insSVD and pCL-Eco packaging vector using Fugene-6 transfection reagent from Promega. Plates were incubated at 37° C. for 48 h. Retrovirus was harvested by filtering the media supernatant through a 0.45 μm filter.
(§2) Ba/F3 cells purchased from DSMZ were grown in RPMI+10% FBS+10 ng/mL IL-3 and infected with filtered retroviral supernatant at a 1:2 dilution. Polybrene was added to a concentration of 8 μg/mL, plates were spun for 90 min, and incubated overnight at 37° C. 2 μg/mL puromycin was added to the infected cells 24 h after infection and cells were continually grown in the presence of puromycin and 10 ng/mL IL-3. Following stably expressing Ba/F3 cell lines were generated: Ba/F3-EGFR-WT, Ba/F3-EGFR-insSVD, (Ba/F3-vector-control).
(§3) For cell survival assays, Ba/F3 cells were grown to a density of 1-2 million cells per mL, spun down and resuspended in media without IL-3, and replated at a concentration 200,000-500,000 cells per mL. The cells ectopically expressing WT EGFR or EGFR-insSVD were plated with 10 ng/mL Millipore Culture grade EGF. The cells ectopically expressing pBABEpuro empty vector were plated with 10 ng/mL IL-3. 2 days later, cells were plated in 50 μL in a 384 well plate at a concentration of 4000 cells per well for cells assayed in the absence of IL-3 and 2000 cells per well for cells assayed in the presence of IL-3. 100 nL of compound was added to each well using a 100 nL pin head, and plates were incubated at 37° C. for 48 h.
(§4) Cell viability was measured by adding 20 μL of Cell Titer-Glo Luminescent Cell Viability Reagent diluted 1:3 in PBS. Plates were sealed with Perkin Elmer Top-Seal, inverted several times to mix, and immediately centrifuged at 1000 rpm for 2 min. Plates were incubated in low light conditions for 8-10 min and luminescence was measured.

[4] = target: Ba/F3-EGFR-WT cells (Homo sapiens, UniProt P00533); assay: Ba/F3 cell survival assay (Cell Titer-Glo), WT EGFR; format: cell-based; conditions: without IL-3, with 10 ng/mL EGF, 48 h; read-out: BA/F3 (wild type) IC50
Sequence of Ba/F3-EGFR-WT cells (P00533 whole entry, change not shown): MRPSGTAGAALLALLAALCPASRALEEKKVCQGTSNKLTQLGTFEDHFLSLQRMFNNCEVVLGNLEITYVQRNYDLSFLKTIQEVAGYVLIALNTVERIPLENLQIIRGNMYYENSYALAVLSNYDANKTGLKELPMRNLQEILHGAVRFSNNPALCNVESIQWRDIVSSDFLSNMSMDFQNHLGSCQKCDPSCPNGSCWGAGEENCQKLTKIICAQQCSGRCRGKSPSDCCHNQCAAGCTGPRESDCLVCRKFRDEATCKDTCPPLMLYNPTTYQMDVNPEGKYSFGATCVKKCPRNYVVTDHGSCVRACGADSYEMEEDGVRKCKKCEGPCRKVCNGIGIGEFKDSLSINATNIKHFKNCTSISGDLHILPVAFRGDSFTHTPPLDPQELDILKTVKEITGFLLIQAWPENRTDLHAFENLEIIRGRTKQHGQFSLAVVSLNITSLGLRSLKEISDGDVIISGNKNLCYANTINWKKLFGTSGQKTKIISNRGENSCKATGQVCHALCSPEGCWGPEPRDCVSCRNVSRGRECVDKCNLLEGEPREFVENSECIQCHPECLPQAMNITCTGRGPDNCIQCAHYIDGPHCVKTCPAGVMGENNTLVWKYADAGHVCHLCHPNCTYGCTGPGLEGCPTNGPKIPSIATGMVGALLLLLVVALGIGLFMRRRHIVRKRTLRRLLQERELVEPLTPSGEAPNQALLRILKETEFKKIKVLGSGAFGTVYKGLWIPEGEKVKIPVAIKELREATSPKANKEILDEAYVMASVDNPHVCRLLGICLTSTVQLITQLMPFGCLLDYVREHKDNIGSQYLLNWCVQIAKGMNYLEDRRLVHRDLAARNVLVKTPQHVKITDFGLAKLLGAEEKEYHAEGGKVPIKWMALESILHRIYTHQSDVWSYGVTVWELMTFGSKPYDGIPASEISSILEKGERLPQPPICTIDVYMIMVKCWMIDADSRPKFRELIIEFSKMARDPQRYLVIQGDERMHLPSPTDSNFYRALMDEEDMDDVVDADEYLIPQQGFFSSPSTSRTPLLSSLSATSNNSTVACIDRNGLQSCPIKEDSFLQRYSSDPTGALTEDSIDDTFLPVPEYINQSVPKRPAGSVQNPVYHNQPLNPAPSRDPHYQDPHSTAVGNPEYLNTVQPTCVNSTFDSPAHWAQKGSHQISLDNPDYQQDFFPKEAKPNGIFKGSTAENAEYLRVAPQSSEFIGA
Description: as §1, §2, §3, §4

[5] = Bub1 high ATP (2 mM) IC50 [mol/l]
[6] = read-out: Bub1 high ATP (2 mM) IC50 [mol/l]

| SMILES | mutEGFR (D770_N771insSVD) kinase assay IC50 [1] [nM] | IC50 [2, 5] [nM] | IC50 [2, 6] [nM] | GI50 [3] [nM] | GI50 [4] [nM] |
| --- | --- | --- | --- | --- | --- |
| Cc1c(F)cccc1Nc1c(-c2ccncc2OCC2COC(C)(C)CO2)[nH]c2c1C(=O)NCC2 (single isomer, unassigned) [Example 39, 2-[3-[(5,5-dimethyl-1,4-dioxan-2-yl)methoxy]-4-pyridyl]-3-(3-fluoro-2-methyl-anilino)-1,5,6,7-tetrahydropyrrolo[3,2-c]pyridin-4-one] | 0.304 | > 20000 | – | 44 | 630 |
| COc1c(Cl)cccc1Nc1c(-c2ccncc2OC(C)C2CN(C)CCO2)[nH]c2c1C(=O)NCC2 (single isomer, unassigned) [Example 74, 3-(3-chloro-2-methoxyanilino)-2-[3-({1-[-4-methylmorpholine-2-yl]ethyl}oxy)pyridin-4-yl]-1,5,6,7-tetrahydro-4H-pyrrolo[3,2-c]pyridin-4-one] | 0.661 | – | > 20000 | 51.1 | 828 |
| COc1c(F)cccc1Nc1c(-c2ccncc2OCC2COC(C)(C)CO2)[nH]c2c1C(=O)NCC2 (single isomer, unassigned) [Example 33, 2-(3-{[5,5-dimethyl-1,4-dioxan-2-yl]methoxy}pyridin-4-yl)-3-(3-fluoro-2-methoxyanilino)-1,5,6,7-tetrahydro-4H-pyrrolo[3,2-c]pyridin-4-one] | 0.213 | > 20000 | – | 102 | 557 |
| CCc1c(F)cccc1Nc1c(-c2ccncc2OCC2COC(C)(C)CO2)[nH]c2c1C(=O)NCC2 (single isomer, unassigned) [Example 69, 2-(3-{[5,5-dimethyl-1,4-dioxan-2-yl]methoxy}pyridin-4-yl)-3-(2-ethyl-3-fluoroanilino)-1,5,6,7-tetrahydro-4H-pyrrolo[3,2-c]pyridin-4-one] | 0.233 | > 20000 | – | 7.17 | 312 |
| COc1c(F)cccc1Nc1c(-c2ccncc2OC[C@@H]2CN(CC(F)(F)F)CCO2)[nH]c2c1C(=O)NCC2 [Example 23, 3-(3-fluoro-2-methoxyanilino)-2-(3-{[(2S)-4-(2,2,2-trifluoroethyl)morpholin-2-yl]methoxy}pyridin-4-yl)-1,5,6,7-tetrahydro-4H-pyrrolo[3,2-c]pyridin-4-one] | 0.169 | > 20000 | – | 71 | 648 |
| COc1c(Cl)cccc1Nc1c(-c2ccncc2OC(C)C2CN(C)CCO2)[nH]c2c1C(=O)NCC2 (single isomer, unassigned) [Example 73, 3-(3-chloro-2-methoxyanilino)-2-[3-({1-[4-methylmorpholin-2-yl]ethyl}oxy)pyridin-4-yl]-1,5,6,7-tetrahydro-4H-pyrrolo[3,2-c]pyridin-4-one] | 1.12 | – | > 20000 | 78 | 1280 |

Continued, in another order:

| mutEGFR (D770_N771insSVD) kinase assay IC50 [1] [nM] | IC50 [2, 5] [nM] | IC50 [2, 6] [nM] | SMILES | GI50 [3] [nM] | GI50 [4] [nM] |
| --- | --- | --- | --- | --- | --- |
| 0.182 | 5040 | – | CCc1c(F)cccc1Nc1c(-c2ccncc2OCC2COCCO2)[nH]c2c1C(=O)NCC2 (single isomer, unassigned) [Example 66, 2-(3-{[1,4-dioxan-2-yl]methoxy}pyridin-4-yl)-3-(2-ethyl-3-fluoroanilino)-1,5,6,7-tetrahydro-4H-pyrrolo[3,2-c]pyridin-4-one] | 7.52 | 252 |
| 0.17 | 3930 | – | Cc1c(F)cccc1Nc1c(-c2ccncc2OCC2COCCO2)[nH]c2c1C(=O)NCC2 (single isomer, unassigned) [Example 49, 2-[3-(1,4-dioxan-2-ylmethoxy)-4-pyridyl]-3-(3-fluoro-2-methyl-anilino)-1,5,6,7-tetrahydropyrrolo[3,2-c]pyridin-4-one] | 53.6 | 785 |
| 0.113 | 11400 | – | COc1c(Cl)cc(F)cc1Nc1c(-c2ccncc2OCC2COCCO2)[nH]c2c1C(=O)NCC2 (stereo not shown) [Example 19, 3-(3-chloro-5-fluoro-2-methoxyanilino)-2-(3-{[1,4-dioxan-2-yl]methoxy}pyridin-4-yl)-1,5,6,7-tetrahydro-4H-pyrrolo[3,2-c]pyridin-4-one] | 29.1 | 532 |
| 0.213 | 1080 | – | COc1c(Cl)cccc1Nc1c(-c2ccncc2OCCC2COCCO2)[nH]c2c1C(=O)NCC2 (single isomer, unassigned) [Example 26, 3-(3-chloro-2-methoxyanilino)-2-{3-[2-(4-dioxan-2-yl)ethoxy]pyridin-4-yl}-1,5,6,7-tetrahydro-4H-pyrrolo[3,2-c]pyridin-4-one] | 89.9 | 839 |
| 0.217 | 2080 | – | CCc1c(F)cccc1Nc1c(-c2ccncc2OCC2COCCO2)[nH]c2c1C(=O)NCC2 (single isomer, unassigned) [Example 67, 2-(3-{[1,4-dioxan-2-yl]methoxy}pyridin-4-yl)-3-(2-ethyl-3-fluoroanilino)-1,5,6,7-tetrahydro-4H-pyrrolo[3,2-c]pyridin-4-one] | 29 | 198 |
| 0.226 | 729 | – | CCc1c(Cl)cccc1Nc1c(-c2ccncc2OCC2COCCO2)[nH]c2c1C(=O)NCC2 (stereo not shown) [Example 52, 3-(3-chloro-2-ethyl-anilino)-2-[3-(1,4-dioxan-2-ylmethoxy)-4-pyridyl]-1,5,6,7-tetrahydropyrrolo[3,2-c]pyridin-4-one] | 13.4 | 547 |
| 0.282 | > 20000 | – | COc1c(Cl)cccc1Nc1c(-c2ccncc2OCCC2COCCO2)[nH]c2c1C(=O)NCC2 (single isomer, unassigned) [Example 25, 3-(3-chloro-2-methoxyanilino)-2-{3-[2-(4-dioxan-2-yl)ethoxy]pyridin-4-yl}-1,5,6,7-tetrahydro-4H-pyrrolo[3,2-c]pyridin-4-one] | 18.3 | 349 |
| 0.159 | 3360 | – | COc1c(Cl)cccc1Nc1c(-c2ccncc2OCC2COCCO2)[nH]c2c1C(=O)NCC2 (stereo not shown) [Example 1, 3-(3-chloro-2-methoxyanilino)-2-{3-[(1,4-dioxan-2-yl)methoxy]pyridin-4-yl}-1,5,6,7-tetrahydro-4H-pyrrolo[3,2-c]pyridin-4-one] | 9.8 | 366 |
| 0.261 | 1940 | – | COc1c(Cl)cccc1Nc1c(-c2ccncc2OCCC2COCCO2)[nH]c2c1C(=O)NCC2 (stereo not shown) [Example 24, 3-(3-chloro-2-methoxyanilino)-2-{3-[2-(4-dioxan-2-yl)ethoxy]pyridin-4-yl}-1,5,6,7-tetrahydro-4H-pyrrolo[3,2-c]pyridin-4-one] | 34.6 | 444 |
| 0.249 | > 20000 | – | COc1c(Cl)cc(F)cc1Nc1c(-c2ccncc2OC[C@@H]2CN(CC(F)(F)F)CCO2)[nH]c2c1C(=O)NCC2 [Example 28, 3-(3-chloro-5-fluoro-2-methoxyanilino)-2-(3-{[(2S)-4-(2,2,2-trifluoroethyl)morpholin-2-yl]methoxy}pyridin-4-yl)-1,5,6,7-tetrahydro-4H-pyrrolo[3,2-c]pyridin-4-one] | 126 | 1240 |
